From ChEMBL document CHEMBL4118100, “High Mobility Group Box-1 (HMGb1): Current Wisdom and Advancement as a Potential Drug Target” (J Med Chem, 2018)
Residues, ends and D or L forms follow the SMILES beside them.

Legend:
[1] = molecular target: Toll-like receptor 4/MD-2 (Homo sapiens, UniProt O00206+Q9Y6Y9); test: Binding affinity to recombinant human 10His-tagged TLR4 (24 to 631 residues)/recombinant human 10His-tagged MD2 (17 to 160 residues) after 5 mins by SPR assay; assay type: protein-complex assay
Toll-like receptor 4/MD-2, sequence (O00206 whole entry, the tested form may be a part): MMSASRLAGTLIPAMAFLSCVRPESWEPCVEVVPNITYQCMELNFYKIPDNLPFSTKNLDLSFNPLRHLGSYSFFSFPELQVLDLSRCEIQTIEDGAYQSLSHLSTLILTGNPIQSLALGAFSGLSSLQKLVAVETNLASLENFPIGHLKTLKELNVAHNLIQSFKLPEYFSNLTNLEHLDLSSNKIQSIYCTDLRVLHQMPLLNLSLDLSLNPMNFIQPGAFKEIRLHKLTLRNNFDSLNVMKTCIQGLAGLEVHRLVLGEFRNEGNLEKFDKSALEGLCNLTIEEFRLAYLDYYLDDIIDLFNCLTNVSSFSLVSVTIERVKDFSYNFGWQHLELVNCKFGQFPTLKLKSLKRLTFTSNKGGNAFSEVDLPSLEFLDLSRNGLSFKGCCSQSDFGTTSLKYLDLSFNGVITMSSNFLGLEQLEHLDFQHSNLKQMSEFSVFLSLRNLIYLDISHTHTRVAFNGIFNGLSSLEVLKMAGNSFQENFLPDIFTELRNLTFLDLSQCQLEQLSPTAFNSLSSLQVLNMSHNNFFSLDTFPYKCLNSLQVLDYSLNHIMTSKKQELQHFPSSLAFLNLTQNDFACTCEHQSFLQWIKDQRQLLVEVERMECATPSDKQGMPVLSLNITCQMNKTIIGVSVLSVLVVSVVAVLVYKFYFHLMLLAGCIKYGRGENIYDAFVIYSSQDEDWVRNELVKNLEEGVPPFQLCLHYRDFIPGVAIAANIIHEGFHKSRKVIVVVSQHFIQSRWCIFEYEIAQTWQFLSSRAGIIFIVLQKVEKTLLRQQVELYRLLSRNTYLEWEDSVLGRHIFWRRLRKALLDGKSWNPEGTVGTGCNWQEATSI
Toll-like receptor 4/MD-2, sequence (Q9Y6Y9 whole entry, the tested form may be a part): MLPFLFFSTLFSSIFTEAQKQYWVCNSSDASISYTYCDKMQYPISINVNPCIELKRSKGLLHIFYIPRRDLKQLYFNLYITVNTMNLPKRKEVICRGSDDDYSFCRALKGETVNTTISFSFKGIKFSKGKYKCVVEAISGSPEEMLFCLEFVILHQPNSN

[2] = molecular target: T1, High mobility group protein B1 (Homo sapiens, UniProt P09429); test: Binding affinity to recombinant HMGB1 A box region (1 to 89 residues) (unknown origin) expressed Escherichia coli after 5 mins by fluorescence-based assay
T1 sequence (P09429 whole entry): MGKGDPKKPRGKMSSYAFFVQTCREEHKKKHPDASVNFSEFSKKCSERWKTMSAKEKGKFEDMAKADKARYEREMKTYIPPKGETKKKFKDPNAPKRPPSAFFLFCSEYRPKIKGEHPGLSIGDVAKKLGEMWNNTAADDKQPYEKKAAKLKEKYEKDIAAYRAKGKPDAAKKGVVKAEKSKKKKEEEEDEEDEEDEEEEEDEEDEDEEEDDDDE

[3] = molecular target: T1, High mobility group protein B1; test: Binding affinity to recombinant HMGB1 B box region (90 to 175 residues) (unknown origin) expressed Escherichia coli after 5 mins by fluorescence-based assay
[4] = molecular target: T1, High mobility group protein B1; test: Binding affinity to N-terminal 6His-tagged HMGB1 Bj region (88 to 181 residues) (unknown origin) expressed in Escherichia coli JM109 by SPR assay
[5] = molecular target: T1, High mobility group protein B1; test: Binding affinity to N-terminal 6His-tagged HMGB1 AI region (1 to 87 residues) (unknown origin) expressed in Escherichia coli JM109 by SPR assay
[6] = molecular target: T1, High mobility group protein B1; test: Binding affinity to recombinant HMGB1 box A (unknown origin)
[7] = molecular target: T1, High mobility group protein B1; test: Binding affinity to recombinant HMGB1 box B (unknown origin)

## CSCC[C@H](NC(=O)[C@H](C)N)C(=O)N[C@@H](C)C(=O)N[C@@H](CC(C)C)C(=O)N[C@@H](CC(=O)O)C(=O)N[C@@H](CS)C(=O)N[C@@H](Cc1ccccc1)C(=O)N[C@@H](CCCNC(=N)N)C(=O)N[C@@H](Cc1c[nH]c2ccccc12)C(=O)NCC(=O)N[C@@H](Cc1c[nH]c2ccccc12)C(=O)N[C@@H](CCCNC(=N)N)C(=O)N[C@@H](CCSC)C(=O)N[C@@H](Cc1c[nH]c2ccccc12)C(=O)N[C@@H](CS)C(=O)N[C@@H](CO)C(=O)N[C@@H](CO)C(=O)NCC(=O)O (H-AMALDCFRWGWRMWCSSG-OH)
[1]
  Kd: 5.95 µM

## CC1(C)[C@@H](O[C@H]2O[C@H](C(=O)O)[C@@H](O)[C@H](O)[C@H]2O[C@@H]2O[C@H](C(=O)O)[C@@H](O)[C@H](O)[C@H]2O)CC[C@]2(C)[C@H]3C(=O)C=C4[C@@H]5C[C@@](C)(C(=O)O)CC[C@]5(C)CC[C@@]4(C)[C@]3(C)CC[C@@H]12 [GLYCYRRHIZIN]
[2]
  Kd: 103 µM
[3]
  Kd: 87 µM

## CN(Cc1cnc2nc(N)nc(N)c2n1)c1ccc(C(=O)N[C@@H](CCC(=O)O)C(=O)O)cc1 [METHOTREXATE]
[4]
  Kd: 0.024 µM
[5]
  Kd: 0.5 µM

## O=C(O)c1ccccc1O [SALICYLIC ACID]
[6]
  Kd: 1 to 10 µM
[7]
  Kd: 1 to 10 µM
